Test results: the supplement of paper PMC10307832

Compound: CC(C)(C)c1cc(NC(=O)Nc2ccc(-c3cn4c(n3)sc3cc(OCCN5CCOCC5)ccc34)cc2)no1 [Quizartinib]
Assay: relative viability (nuclei count vs DMSO), 5 days (fraction); higher = more cells survive
Details: 0.001 µM
In short: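 Cells of lung cancer lines were placed in 1536-well plates and kept overnight at 37 °C. Pinning then delivered five library-drug doses (not always all listed), spaced by √10, onto plates anchored with vehicle, and the cells were left 5 days without changing medium. One step fixed, permeabilised and stained them with Hoechst, and MetaXpress counted nuclei in 4× images. Viability, as a median over plates, is treated-well nuclei divided by vehicle-well nuclei, with acceptance only at control CV below 25% and at least one doubling.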

| Cell Line | relative viability |
| --- | --- |
| SK-LU-1 | 0.88 |
| IA-LM | 0.889 |
| NCI-H2170 | 0.97 |
| NCI-H661 | 0.883 |
| NCI-H358 | 0.892 |
| CAL-12T | 0.92 |
| LK-2 | 0.943 |
| HOP-62 | 0.843 |
| PC-14 | 0.884 |
| NCI-H1993 | 0.948 |
| NCI-H2405 | 0.986 |
| A549 | 0.751 |
| NCI-H3122 | 0.885 |
| A-427 | 0.771 |
| LOU-NH91 | 0.954 |
| NCI-H596 | 1.05 |
| NCI-H1666 | 0.86 |
| NCI-H23 | 0.742 |
| NCI-H838 | 0.894 |
| NCI-H322M | 0.952 |

Same assay, conditions: 0.003162 µM

| Cell Line | relative viability |
| --- | --- |
| NCI-H2009 | 0.937 |
| HCC-366 | 1.04 |
| EBC-1 | 0.871 |
| NCI-H1915 | 0.925 |
| NCI-H2347 | 1.06 |
| ABC-1 | 0.825 |
| NCI-H1734 | 0.959 |
| HCC-78 | 1.03 |
| COR-L 105 | 0.961 |
| HCC-15 | 1 |
| HARA | 0.924 |
| NCI-H1975 | 0.891 |
| NCI-H1944 | 0.918 |
| NCI-H2126 | 1.01 |
| EMC-BAC-2 | 0.976 |
| SK-LU-1 | 0.861 |
| IA-LM | 0.992 |
| NCI-H2170 | 0.944 |

| Cell Line | relative viability |
| --- | --- |
| NCI-H661 | 0.988 |
| NCI-H358 | 0.979 |
| CAL-12T | 1.06 |
| LK-2 | 0.891 |
| HOP-62 | 0.954 |
| PC-14 | 0.985 |
| NCI-H1993 | 1 |
| NCI-H2405 | 1.03 |
| A549 | 0.976 |
| NCI-H3122 | 0.977 |
| A-427 | 0.982 |
| LOU-NH91 | 1.12 |
| NCI-H596 | 1.03 |
| NCI-H1666 | 1.01 |
| NCI-H23 | 1.01 |
| NCI-H838 | 0.962 |
| NCI-H322M | 1.03 |

Same assay, conditions: 0.01 µM

| Cell Line | relative viability |
| --- | --- |
| NCI-H2009 | 0.995 |
| HCC-366 | 1.06 |
| EBC-1 | 0.981 |
| NCI-H1915 | 0.865 |
| NCI-H2347 | 1.07 |
| ABC-1 | 0.817 |
| NCI-H1734 | 1.03 |
| HCC-78 | 0.911 |
| COR-L 105 | 0.906 |
| HCC-15 | 0.978 |
| HARA | 1.05 |
| NCI-H1975 | 0.966 |
| NCI-H1944 | 0.889 |
| NCI-H2126 | 1.01 |
| EMC-BAC-2 | 0.927 |
| SK-LU-1 | 1.11 |
| IA-LM | 1.11 |
| NCI-H2170 | 1.04 |

| Cell Line | relative viability |
| --- | --- |
| NCI-H661 | 0.991 |
| NCI-H358 | 0.841 |
| CAL-12T | 1.05 |
| LK-2 | 1.02 |
| HOP-62 | 1.01 |
| PC-14 | 1.09 |
| NCI-H1993 | 1.02 |
| NCI-H2405 | 0.955 |
| A549 | 0.928 |
| NCI-H3122 | 1.07 |
| A-427 | 0.979 |
| LOU-NH91 | 0.965 |
| NCI-H596 | 0.99 |
| NCI-H1666 | 1 |
| NCI-H23 | 0.918 |
| NCI-H838 | 0.882 |
| NCI-H322M | 0.916 |

Same assay, conditions: 0.03162 µM

| Cell Line | relative viability |
| --- | --- |
| NCI-H2009 | 1.02 |
| HCC-366 | 1.04 |
| EBC-1 | 0.922 |
| NCI-H1915 | 0.998 |
| NCI-H2347 | 0.965 |
| ABC-1 | 0.673 |
| NCI-H1734 | 0.943 |
| HCC-78 | 0.865 |
| COR-L 105 | 0.87 |
| HCC-15 | 0.957 |
| HARA | 0.954 |
| NCI-H1975 | 1.03 |
| NCI-H1944 | 0.918 |
| NCI-H2126 | 1.05 |
| SK-LU-1 | 0.999 |
| IA-LM | 0.924 |
| NCI-H2170 | 1.04 |

| Cell Line | relative viability |
| --- | --- |
| NCI-H661 | 1.01 |
| CAL-12T | 0.821 |
| LK-2 | 0.944 |
| HOP-62 | 1.1 |
| PC-14 | 0.833 |
| NCI-H1993 | 1.04 |
| NCI-H2405 | 0.958 |
| A549 | 0.884 |
| NCI-H3122 | 1.01 |
| A-427 | 0.922 |
| LOU-NH91 | 0.857 |
| NCI-H596 | 0.875 |
| NCI-H1666 | 0.845 |
| NCI-H23 | 0.896 |
| NCI-H838 | 0.936 |
| NCI-H322M | 0.965 |

Same assay, conditions: 0.1 µM

| Cell Line | relative viability |
| --- | --- |
| NCI-H2009 | 0.96 |
| HCC-366 | 1.02 |
| EBC-1 | 0.977 |
| NCI-H1915 | 1.02 |
| NCI-H2347 | 1.12 |
| ABC-1 | 0.913 |
| NCI-H1734 | 1.01 |
| HCC-78 | 0.988 |
| COR-L 105 | 1.05 |
| HCC-15 | 0.963 |
| HARA | 0.941 |
| NCI-H1975 | 1.01 |
| NCI-H1944 | 0.944 |
| NCI-H2126 | 1.08 |
| EMC-BAC-2 | 1.05 |
| SK-LU-1 | 1.06 |

| Cell Line | relative viability |
| --- | --- |
| IA-LM | 0.933 |
| NCI-H2170 | 0.995 |
| NCI-H661 | 0.948 |
| NCI-H358 | 0.873 |
| CAL-12T | 1.11 |
| LK-2 | 1.15 |
| HOP-62 | 0.979 |
| PC-14 | 1.18 |
| NCI-H1993 | 1.11 |
| NCI-H2405 | 1.06 |
| A549 | 1.05 |
| NCI-H3122 | 0.982 |
| A-427 | 1.05 |
| LOU-NH91 | 1.14 |
| NCI-H596 | 1.04 |
| NCI-H1666 | 1.02 |
